Measurements: US11884750B2, “Cationic cell penetrating peptides and the use thereof” (CELLTROY CO., LTD., priority 2021, dated 2024)
“Also recorded” adds a separate entry of the source.

How the values were obtained:
HaCAT cells = test: Cell penetration efficiency in human epidermal (skin) cells, 4 μM, flow cytometry; format: cell-based; details: 4 μM FITC-conjugated CPP, one hour
Description: The cell penetration efficiency of the cationic CPPs selected in Example 1 was evaluated using human epidermal cells. In further detail, HaCAT cells, which is a human epidermal cell line, were seeded in 24-well plates to have a cell density of 1×10^7 cells/well, and cultured in 10% FBS-added DMEM under conditions of 37° C. and 5% CO2 for 24 hours. Subsequently, the cells were treated 4 μM each of the FITC-conjugated CPP or FITC-conjugated TAT, and incubated for one hour. After the termination of the incubation, the cells were transferred to a sterile tube using 0.25% trypsin, and the medium was removed through centrifugation. Afterward, the cells were washed with 500 μL of D-PBS twice to completely remove the medium, and finally, resuspended in 400 μL of D-PBS and intracellular fluorescence was measured by flow cytometry (FACSCanto II).
(§1) To evaluate the cell penetration efficiency of the additionally selected cationic CPPs, an experiment was conducted using human epidermal cells or human neuroblastoma cells. In further detail, HaCAT cells, which is a human epidermal cell line, or SH-SYSY cells, which is a human neuroblastoma cell line, were seeded in 24-well plates to have a cell density of 1×10^7 cells/well and cultured in 10% FBS-added DMEM under conditions of 37° C. and 5% CO2 for 24 hours. In addition, the cells were treated with 4 μM each of FITC-conjugated peptides and FITC-conjugated TAT for one hour. After the completion of the culture, the cells were transferred to a sterile tube using 0.25% trypsin and centrifuged to remove the medium. Afterward, the cells were washed with 500 μL of D-PBS twice to completely remove the medium, and finally, resuspended in 400 μL of D-PBS and intracellular fluorescence was measured by flow cytometry (FACSCanto II).
(§2) Subsequently, to confirm whether the CPPs according to the present invention show excellent cell permeability into different types of cells/tissues, various tissue-derived cells were treated with biologically active molecule-conjugated CPPs to compare its delivery capacity with TAT. As in the previous examples, each cell was aliquoted in a plate at an appropriate density, and cultured in a 10% FBS-added medium under a condition of 37° C. and 5% CO2 for 24 hours. Subsequently, the cells were treated with 4 μM each of FITC-conjugated CPP or FITC-conjugated TAT and incubated for one hour. After the completion of the incubation, the cells were transferred to a sterile tube using 0.25% trypsin and centrifuged to remove the medium. Afterward, the cells were washed with 500 μL of D-PBS twice to completely remove the medium, and finally, resuspended in 400 μL of D-PBS and intracellular fluorescence was measured by flow cytometry (FACSCanto II).

SH-SY5Y cells = test: Cell penetration efficiency in human neuroblastoma cells, 4 μM, flow cytometry; format: cell-based; details: one hour; for cell permeability compared with TAT: 4 μM FITC-conjugated CPP, flow cytometry; for Score / Score/TAT: 4 μM FITC-conjugated peptide; for Score: intracellular fluorescence by flow cytometry; for Score/TAT: ratio to FITC-conjugated TAT
Description: The cell penetration efficiency of the cationic CPPs selected in Example 1 was evaluated in neuroblastoma. In further detail, SH-SYSY cells, which is a human neuroblastoma cell line, were seeded in 24-well plates to have a cell density of 1×10^7 cells/well, and cultured in 10% FBS-added DMEM under conditions of 37° C. and 5% CO2 for 24 hours. In addition, the cells were treated with 4 μM each of FITC-conjugated CPPs (C12, C14, C16, C31, C52, and C67), or FITC-conjugated TAT, and incubated for one hour. After the termination of the incubation, the cells were transferred to a sterile tube using 0.25% trypsin and centrifuged to remove the medium. Afterward, the cells were washed with 500 μL of D-PBS twice to completely remove the medium, and finally, resuspended in 400 μL of D-PBS and intracellular fluorescence was measured by flow cytometry (FACSCanto II).
as §1, §2

HGB cell line = test: Cell penetration efficiency in glioblastoma cells; format: cell-based, human; details: 4 μM FITC-conjugated CPP, one hour
Description: as §2

HDF cell line = test: Cell penetration efficiency in skin cells (HDF); format: cell-based; details: 4 μM FITC-conjugated CPP, one hour
Description: as §2

HeLa cell line = test: Cell penetration efficiency using cervical cancer cells; format: cell-based; details: 4 μM FITC-conjugated CPP, one hour
Description: as §2

HT1080 cell line = test: Cell penetration efficiency using connective tissue (fibrosarcoma) cells; format: cell-based; details: 4 μM FITC-conjugated CPP, one hour
Description: as §2

HepG2 cell line = test: Cell penetration efficiency using liver cells; format: cell-based; details: 4 μM FITC-conjugated CPP, one hour
Description: as §2

HEK293T cell line = test: Cell penetration efficiency using kidney cells; format: cell-based; details: 4 μM FITC-conjugated CPP, one hour
Description: as §2

A-427 cell line = test: Cell penetration efficiency using lung cells; format: cell-based; details: A-427 lung cells, 4 μM FITC-conjugated CPP, one hour
Description: as §2

SNU-46 cell line = test: Cell penetration efficiency using laryngeal cells; format: cell-based; details: SNU-46 laryngeal cells, 4 μM FITC-conjugated CPP, one hour
Description: as §2

monocytes = test: Cell penetration efficiency using monocytes; format: cell-based; details: 4 μM FITC-conjugated CPP, one hour
Description: as §2

macrophages = test: Cell penetration efficiency using macrophages; format: cell-based; details: macrophages differentiated from THP1 cells, 4 μM FITC-conjugated CPP, one hour
Description: as §2, with “II). Macrophages were used by inducing differentiation from THP1 cells. Specifically, the THP-1 cells were aliquoted on a cover glass laid on a 24-well plate to have a density of 6×10^4 cells/well, and after the addition of 100 ng/mL of phorbol 12-myristate 13-acetate (PMA), the cells were incubated for 48 hours to induce the differentiation into macrophages. After 48 hours, the cells were washed with Dulbecco's phosphate buffered saline (DPBS) to perform an experiment.” for “II).”

Row | Sequence | cell permeability compared with TAT (HaCAT cells) | cell permeability compared with TAT (SH-SY5Y cells) | Score (SH-SY5Y cells) | Score/TAT (SH-SY5Y cells) | cell permeability compared with TAT (HGB cell line) | cell permeability compared with TAT (HDF cell line) | cell permeability compared with TAT (HeLa cell line) | cell permeability compared with TAT (HT1080 cell line) | cell permeability compared with TAT (HepG2 cell line) | cell permeability compared with TAT (HEK293T cell line) | cell permeability compared with TAT (A-427 cell line) | cell permeability compared with TAT (SNU-46 cell line) | cell permeability compared with TAT (monocytes) | cell permeability compared with TAT (macrophages)
1 | ALVLLRRRRRDRKP [C14] | increased cell permeability; also recorded: higher cell permeability | higher cell permeability | 1382 | 2.663 | higher cell permeability | higher cell permeability | higher cell permeability | higher cell permeability | higher cell permeability | higher cell permeability | higher cell permeability | higher cell permeability | – | –
2 | KKRKKRRKKRKVDP [C67] | increased cell permeability | higher cell permeability | 2328 | 4.486 | higher cell permeability | higher cell permeability | higher cell permeability | higher cell permeability | higher cell permeability | higher cell permeability | higher cell permeability | higher cell permeability | – | –
3 | KRKLKVRRKLREPR [C115] | – | higher cell permeability | 563 | 1.085 | – | – | – | – | – | – | – | – | higher cell permeability | –
4 | KRRKLRIKRRIRVP [C208] | higher cell permeability | higher cell permeability | 1326 | 2.555 | – | higher cell permeability | higher cell permeability | higher cell permeability | – | – | – | higher cell permeability | higher cell permeability | –
5 | LMPSKIRRRKKRKK [C85] | higher cell permeability | higher cell permeability | 798 | 1.538 | – | higher cell permeability | – | higher cell permeability | – | – | – | higher cell permeability | higher cell permeability | higher cell permeability
6 | MKRLLKVVRRRRRP [C201] | – | higher cell permeability | 802 | 1.545 | higher cell permeability | – | higher cell permeability | – | – | – | – | higher cell permeability | – | higher cell permeability
7 | RLRALVRRKQRARP [C82] | higher cell permeability | higher cell permeability | 628 | 1.210 | – | – | – | higher cell permeability | – | – | higher cell permeability | – | higher cell permeability | –
8 | RPALKQRRWRRKKK [C117] | higher cell permeability | higher cell permeability | 936 | 1.803 | higher cell permeability | higher cell permeability | higher cell permeability | higher cell permeability | – | – | higher cell permeability | higher cell permeability | higher cell permeability | –
9 | RPIRKLLRQARQRR [C131] | – | higher cell permeability | 790 | 1.522 | higher cell permeability | higher cell permeability | higher cell permeability | – | – | – | – | – | higher cell permeability | –
10 | RPLVRRRLRRAVRR [C226] | higher cell permeability | – | 474 | 0.913 | – | – | higher cell permeability | – | – | – | – | higher cell permeability | higher cell permeability | higher cell permeability
11 | RRALRRRAQRRGAP [C181] | – | higher cell permeability | 682 | 1.314 | higher cell permeability | higher cell permeability | higher cell permeability | – | – | – | – | – | higher cell permeability | –
12 | RTRLLRRLRALKPR [C223] | – | – | 408 | 0.786 | – | – | higher cell permeability | – | – | – | – | – | higher cell permeability | –
13 | YRPRRKKATKKLKR [C284] | – | higher cell permeability | 532 | 1.025 | higher cell permeability | – | higher cell permeability | – | – | higher cell permeability | – | – | – | higher cell permeability
14 | YRPRRKKITKKLKR [C283] | – | – | 514 | 0.990 | higher cell permeability | – | higher cell permeability | higher cell permeability | – | higher cell permeability | – | higher cell permeability | higher cell permeability | higher cell permeability
